Reference: patent US10660877B2 (BRISTOL-MYERS SQUIBB COMPANY, priority 2016, dated 2020)

Tests used:
[1] = target: human TLR8 (Homo sapiens (Human), UniProt Q9NR97); test: TLR8 inhibition reporter assay (HEK-Blue cells, SEAP reporter, R848 stimulation); details: read-out: TLR8 IC50, HEK-Blue cells overexpressing human TLR8, R848 15.9 μM;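 note: compounds tested from 0.05 nM to 50 µM, 22 h at 37 °C, SEAP measured with HEK-Blue Detection, inhibition relative to agonist plus DMSO versus a known inhibitor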
[2] = target: human TLR7 (Homo sapiens (Human), UniProt Q9NYK1); test: TLR7 inhibition reporter assay (HEK-Blue cells, SEAP reporter, gardiquimod stimulation); format: cell-based; details: HEK-Blue cells overexpressing human TLR7, gardiquimod 7.5 μM
[3] = target: human TLR9 (Homo sapiens (Human), UniProt Q9NR96); test: TLR9 inhibition reporter assay (HEK-Blue cells, SEAP reporter, ODN2006 stimulation); details: read-out: TLR9 IC50, HEK-Blue cells overexpressing human TLR9, ODN2006 5 nM;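 note: compounds tested over 0.05 nM to 50 µM, 22 h incubation, inhibition taken as SEAP signal drop from agonist plus DMSO wells toward a known inhibitor control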
Sequence of human TLR9 (Q9NR96 26-1032): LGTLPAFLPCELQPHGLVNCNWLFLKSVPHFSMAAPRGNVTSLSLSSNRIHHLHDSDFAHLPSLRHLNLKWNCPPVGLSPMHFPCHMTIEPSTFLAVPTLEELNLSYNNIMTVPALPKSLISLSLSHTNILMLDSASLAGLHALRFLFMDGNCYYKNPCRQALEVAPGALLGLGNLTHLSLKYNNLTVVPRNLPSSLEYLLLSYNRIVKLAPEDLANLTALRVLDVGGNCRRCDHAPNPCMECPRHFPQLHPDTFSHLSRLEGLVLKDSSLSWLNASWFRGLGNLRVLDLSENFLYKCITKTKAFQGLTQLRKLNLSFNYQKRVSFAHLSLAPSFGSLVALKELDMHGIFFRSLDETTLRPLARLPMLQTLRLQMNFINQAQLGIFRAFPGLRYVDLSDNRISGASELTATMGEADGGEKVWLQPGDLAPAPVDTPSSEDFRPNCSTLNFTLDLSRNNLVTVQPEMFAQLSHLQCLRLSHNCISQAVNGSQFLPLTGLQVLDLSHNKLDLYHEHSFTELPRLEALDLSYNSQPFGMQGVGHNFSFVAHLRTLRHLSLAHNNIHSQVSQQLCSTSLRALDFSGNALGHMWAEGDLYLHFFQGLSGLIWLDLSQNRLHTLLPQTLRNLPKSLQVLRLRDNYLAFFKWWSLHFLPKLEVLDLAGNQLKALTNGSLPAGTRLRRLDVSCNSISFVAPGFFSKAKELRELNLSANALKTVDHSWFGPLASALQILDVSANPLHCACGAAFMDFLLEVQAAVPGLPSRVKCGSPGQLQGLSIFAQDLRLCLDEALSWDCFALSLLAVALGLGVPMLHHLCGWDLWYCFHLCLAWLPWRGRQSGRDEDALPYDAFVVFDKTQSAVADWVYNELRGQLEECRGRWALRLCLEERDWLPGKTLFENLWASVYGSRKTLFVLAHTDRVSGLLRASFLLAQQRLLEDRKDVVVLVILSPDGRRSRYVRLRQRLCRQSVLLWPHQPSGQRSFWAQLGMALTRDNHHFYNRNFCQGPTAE

Sequence of human TLR7 (Q9NYK1 27-1049): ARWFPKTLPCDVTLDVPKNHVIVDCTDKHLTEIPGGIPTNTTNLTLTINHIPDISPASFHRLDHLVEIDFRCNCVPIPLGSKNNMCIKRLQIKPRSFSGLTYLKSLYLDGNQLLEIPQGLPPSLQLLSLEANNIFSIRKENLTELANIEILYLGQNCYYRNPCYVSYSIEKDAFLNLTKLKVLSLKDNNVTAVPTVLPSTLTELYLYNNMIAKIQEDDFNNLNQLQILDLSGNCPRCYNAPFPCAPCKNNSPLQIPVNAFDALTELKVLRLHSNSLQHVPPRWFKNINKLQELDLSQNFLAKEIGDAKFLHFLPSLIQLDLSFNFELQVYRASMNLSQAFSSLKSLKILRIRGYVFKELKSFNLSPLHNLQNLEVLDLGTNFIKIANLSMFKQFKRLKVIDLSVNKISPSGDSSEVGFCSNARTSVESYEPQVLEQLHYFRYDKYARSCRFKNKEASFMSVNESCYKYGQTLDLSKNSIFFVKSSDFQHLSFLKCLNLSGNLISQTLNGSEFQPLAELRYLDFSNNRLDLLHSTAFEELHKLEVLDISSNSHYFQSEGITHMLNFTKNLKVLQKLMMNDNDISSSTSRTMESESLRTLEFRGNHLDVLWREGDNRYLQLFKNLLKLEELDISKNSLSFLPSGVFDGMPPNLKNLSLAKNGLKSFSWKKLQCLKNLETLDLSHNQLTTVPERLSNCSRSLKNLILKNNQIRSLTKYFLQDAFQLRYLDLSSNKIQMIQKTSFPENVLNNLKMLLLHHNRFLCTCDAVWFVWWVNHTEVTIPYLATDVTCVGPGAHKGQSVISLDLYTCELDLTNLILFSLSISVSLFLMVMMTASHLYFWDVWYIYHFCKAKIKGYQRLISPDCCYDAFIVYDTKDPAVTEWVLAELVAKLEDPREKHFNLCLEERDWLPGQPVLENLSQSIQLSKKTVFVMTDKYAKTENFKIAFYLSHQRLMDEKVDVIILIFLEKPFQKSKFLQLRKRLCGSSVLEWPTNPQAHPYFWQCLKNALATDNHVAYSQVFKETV
Sequence of human TLR8 (Q9NR97 27-1041): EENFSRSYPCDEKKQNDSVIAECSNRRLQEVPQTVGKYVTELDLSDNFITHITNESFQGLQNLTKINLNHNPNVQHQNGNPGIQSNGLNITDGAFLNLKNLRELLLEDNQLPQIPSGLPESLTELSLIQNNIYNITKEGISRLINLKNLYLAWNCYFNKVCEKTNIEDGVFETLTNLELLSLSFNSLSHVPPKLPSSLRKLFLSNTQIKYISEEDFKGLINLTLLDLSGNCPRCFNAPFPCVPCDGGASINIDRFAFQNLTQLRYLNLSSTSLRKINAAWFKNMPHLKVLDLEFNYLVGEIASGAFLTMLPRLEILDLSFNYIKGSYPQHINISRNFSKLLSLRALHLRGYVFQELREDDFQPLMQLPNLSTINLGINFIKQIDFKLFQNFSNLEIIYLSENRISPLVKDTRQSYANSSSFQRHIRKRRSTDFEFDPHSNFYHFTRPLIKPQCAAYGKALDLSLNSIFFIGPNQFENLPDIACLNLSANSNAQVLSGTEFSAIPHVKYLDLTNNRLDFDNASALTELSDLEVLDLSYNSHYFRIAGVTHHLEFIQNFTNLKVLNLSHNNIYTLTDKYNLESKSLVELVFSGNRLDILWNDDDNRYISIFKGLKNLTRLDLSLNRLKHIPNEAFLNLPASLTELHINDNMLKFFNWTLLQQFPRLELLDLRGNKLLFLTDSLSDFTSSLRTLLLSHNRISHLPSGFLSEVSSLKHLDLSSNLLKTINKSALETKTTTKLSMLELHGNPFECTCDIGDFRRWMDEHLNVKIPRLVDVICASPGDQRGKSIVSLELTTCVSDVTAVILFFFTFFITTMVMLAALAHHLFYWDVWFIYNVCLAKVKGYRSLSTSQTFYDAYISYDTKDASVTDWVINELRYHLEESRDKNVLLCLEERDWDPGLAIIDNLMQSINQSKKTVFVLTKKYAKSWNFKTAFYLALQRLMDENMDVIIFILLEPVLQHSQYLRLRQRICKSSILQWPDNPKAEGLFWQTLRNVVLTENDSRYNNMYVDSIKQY

IC50 [1] [nM]	IC50 [2] [nM]	IC50 [3] [nM]	SMILES
3.2	2.8	3140	CNC(=O)CN1CCC(c2ccc3[nH]c(-c4cc(C)ncc4F)c(C(C)C)c3c2)CC1 [Example 654, 2-(4-(2-(5-fluoro-2-methylpyridin-4-yl)-3-isopropyl-1H-indol-5-yl)piperidin-1-yl)-N-methylacetamide]
4.2	1.3	1750	CNC(=O)CN1CCC(c2ccc3[nH]c(-c4cc(C)nc(C)c4F)c(C(C)C)c3c2)CC1 [Example 655, 2-(4-(2-(3-fluoro-2,6-dimethylpyridin-4-yl)-3-isopropyl-1H-indol-5-yl)piperidin-1-yl)-N-methylacetamide]
1.9	9.3	> 50000	Cc1cc(-c2[nH]c3ccc(C4CCN(CCC#N)CC4)cc3c2C(C)C)c(F)cn1 [Example 656, 3-(4-(2-(5-fluoro-2-methylpyridin-4-yl)-3-isopropyl-1H-indol-5-yl)piperidin-1-yl)propanenitrile]
5.3	5.9	5680	Cc1cc(-c2[nH]c3ccc(C4CCN(C(=O)CCN5CCOCC5)CC4)cc3c2C(C)C)c(F)cn1 [Example 657, 1-(4-(2-(5-fluoro-2-methylpyridin-4-yl)-3-isopropyl-1H-indol-5-yl)piperidin-1-yl)-3-morpholinopropan-1-one]
645	434	7290	Cc1cc(-c2[nH]c3ccc(C4CCN(CC(F)(F)F)CC4)cc3c2C(C)C)ccn1 [Example 658, 3-isopropyl-2-(2-methylpyridin-4-yl)-5-(1-(2,2,2-trifluoroethyl)piperidin-4-yl)-1H-indole]
16.7	31.7	1450	CCOCCN1CCC(c2ccc3[nH]c(-c4ccnc(C)c4)c(C(C)C)c3c2)CC1 [Example 659, 5-(1-(2-ethoxyethyl)piperidin-4-yl)-3-isopropyl-2-(2-methylpyridin-4-yl)-1H-indole]
78.9	104	> 50000	Cc1cc(-c2[nH]c3ccc(C4CCN(CC(F)F)CC4)cc3c2C(C)C)ccn1 [Example 660, 5-(1-(2,2-difluoroethyl)piperidin-4-yl)-3-isopropyl-2-(2-methylpyridin-4-yl)-1H-indole]
3.1	30.9	1940	Cc1cc(-c2[nH]c3ccc(C4CCN(CC(O)C(F)(F)F)CC4)cc3c2C(C)C)ccn1 (stereo not drawn) [Example 661, 1,1,1-trifluoro-3-(4-(3-isopropyl-2-(2-methylpyridin-4-yl)-1H-indol-5-yl)piperidin-1-yl)propan-2-ol]
29.6	60.6	1150	Cc1cc(-c2[nH]c3ccc(C4CCN(CC(O)c5ccccc5)CC4)cc3c2C(C)C)ccn1 (stereo not drawn) [Example 662, 2-(4-(3-isopropyl-2-(2-methylpyridin-4-yl)-1H-indol-5-yl)piperidin-1-yl)-1-phenylethan-1-ol]
31.2	112	1100	Cc1cc(-c2[nH]c3ccc(C4CCN(CCOc5ccccc5)CC4)cc3c2C(C)C)ccn1 [Example 663, 3-isopropyl-2-(2-methylpyridin-4-yl)-5-(1-(2-phenoxyethyl)piperidin-4-yl)-1H-indole]
4.5	10.2	1570	CCC(O)CN1CCC(c2ccc3[nH]c(-c4ccnc(C)c4)c(C(C)C)c3c2)CC1 (stereo not drawn) [Example 664, 1-(4-(3-isopropyl-2-(2-methylpyridin-4-yl)-1H-indol-5-yl)piperidin-1-yl)butan-2-ol]
2.2	13.6	6210	Cc1cc(-c2[nH]c3ccc(C4CCN(CCC#N)CC4)cc3c2C(C)C)c(C)cn1 [Example 665, 3-(4-(2-(2,5-dimethylpyridin-4-yl)-3-isopropyl-1H-indol-5-yl)piperidin-1-yl)propanenitrile]
2.6	5.8	948	Cc1cc(-c2[nH]c3ccc(C4CCN(CC(C)C)CC4)cc3c2C(C)C)c(C)cn1 [Example 666, 2-(2,5-dimethylpyridin-4-yl)-5-(1-isobutylpiperidin-4-yl)-3-isopropyl-1H-indole]
32.1	19	86	Cc1cc(-c2[nH]c3ccc(C4CCN(CC5CC5)CC4)cc3c2C2CC2)cc(C)n1 [Example 667, 3-cyclopropyl-5-(1-(cyclopropylmethyl)piperidin-4-yl)-2-(2,6-dimethylpyridin-4-yl)-1H-indole]
7.6	14.3	149	Cc1cc(-c2[nH]c3ccc(C4CCN(CC(C)(C)O)CC4)cc3c2C2CC2)cc(C)n1 [Example 668, 1-(4-(3-cyclopropyl-2-(2,6-dimethylpyridin-4-yl)-1H-indol-5-yl)piperidin-1-yl)-2-methylpropan-2-ol]
1.9	2.6	221	Cc1cc(-c2[nH]c3ccc(C4CCN(CCCN(C)C)CC4)cc3c2C(C)C)ccn1 [Example 669, 3-(4-(3-isopropyl-2-(2-methylpyridin-4-yl)-1H-indol-5-yl)piperidin-1-yl)-N,N-dimethylpropan-1-amine]
64.8	68.1	663	CCc1c(-c2ccnc(C)c2)[nH]c2ccc(C3CCN(C)CC3)cc12 [Example 670, 3-ethyl-5-(1-methylpiperidin-4-yl)-2-(2-methylpyridin-4-yl)-1H-indole]

Continued, molecule first:

SMILES	IC50 [1] [nM]	IC50 [2] [nM]	IC50 [3] [nM]
Cc1cc(-c2[nH]c3ccc(C4CCN(C(C)C)CC4)cc3c2C(C)C)c(C)cn1 [Example 641, 2-(2,5-dimethylpyridin-4-yl)-3-isopropyl-5-(1-isopropylpiperidin-4-yl)-1H-indole]	9.7	33	2670
Cc1cc(-c2[nH]c3ccc(C4CCN(CC(=O)N(C)C)CC4)cc3c2C(C)C)c(C)cn1 [Example 642, 2-(4-(2-(2,5-dimethylpyridin-4-yl)-3-isopropyl-1H-indol-5-yl)piperidin-1-yl)-N,N-dimethylacetamide]	5.6	16.1	4100
Cc1cc(-c2[nH]c3ccc(C4CCN(CC(=O)N(C)C)CC4)cc3c2C(C)C)c(F)cn1 [Example 643, 2-(4-(2-(5-fluoro-2-methylpyridin-4-yl)-3-isopropyl-1H-indol-5-yl)piperidin-1-yl)-N,N-dimethylacetamide]	4.7	4.5	4400
Cc1cc(-c2[nH]c3ccc(C4CCN(CC(=O)N(C)C)CC4)cc3c2C(C)C)c(Cl)c(C)n1 [Example 644, 2-(4-(2-(3-chloro-2,6-dimethylpyridin-4-yl)-3-isopropyl-1H-indol-5-yl)piperidin-1-yl)-N,N-dimethylacetamide]	6	7.7	2300
Cc1cc(-c2[nH]c3ccc(C4CCN(CC(=O)N(C)C)CC4)cc3c2C(C)C)c(F)c(C)n1 [Example 645, 2-(4-(2-(3-fluoro-2,6-dimethylpyridin-4-yl)-3-isopropyl-1H-indol-5-yl)piperidin-1-yl)-N,N-dimethylacetamide]	5.8	1.7	7430
Cc1cc(-c2[nH]c3ccc(C4CCN(CC5COC5)CC4)cc3c2C(C)C)c(F)cn1 [Example 646, 2-(5-fluoro-2-methylpyridin-4-yl)-3-isopropyl-5-(1-(oxetan-3-ylmethyl)piperidin-4-yl)-1H-indole]	4.8	12	5850
Cc1cc(-c2[nH]c3ccc(C4CCN(CCO)CC4)cc3c2C(C)C)c(F)cn1 [Example 647, 2-(4-(2-(5-fluoro-2-methylpyridin-4-yl)-3-isopropyl-1H-indol-5-yl)piperidin-1-yl)ethan-1-ol]	2.3	3.9	2660
Cc1nccc(-c2[nH]c3ccc(C4CCN(CC(=O)N(C)C)CC4)cc3c2C(C)C)c1F [Example 648, 2-(4-(2-(3-fluoro-2-methylpyridin-4-yl)-3-isopropyl-1H-indol-5-yl)piperidin-1-yl)-N,N-dimethylacetamide]	3.7	3	2240
Cc1cc(-c2[nH]c3ccc(C4CCN(CC(F)F)CC4)cc3c2C(C)C)c(F)cn1 [Example 649, 5-(1-(2,2-difluoroethyl)piperidin-4-yl)-2-(5-fluoro-2-methylpyridin-4-yl)-3-isopropyl-1H-indole]	16.2	45.7	> 50000
Cc1cc(-c2[nH]c3ccc(C4CCN(CC5COC5)CC4)cc3c2C(C)C)c(F)cn1 [Example 650, 2-(5-fluoro-2-methylpyridin-4-yl)-3-isopropyl-5-(1-(oxetan-3-ylmethyl)piperidin-4-yl)-1H-indole]	1.8	4.7	3400
Cc1cc(-c2[nH]c3ccc(C4CCN(CC(N)=O)CC4)cc3c2C(C)C)c(C)cn1 [Example 651, 2-(4-(2-(2,5-dimethylpyridin-4-yl)-3-isopropyl-1H-indol-5-yl)piperidin-1-yl)acetamide]	2.1	5.3	3740
Cc1cc(-c2[nH]c3ccc(C4CCN(CC(N)=O)CC4)cc3c2C(C)C)c(F)cn1 [Example 652, 2-(4-(2-(5-fluoro-2-methylpyridin-4-yl)-3-isopropyl-1H-indol-5-yl)piperidin-1-yl)acetamide]	3	1.5	1290
CNC(=O)CN1CCC(c2ccc3[nH]c(-c4cc(C)ncc4C)c(C(C)C)c3c2)CC1 [Example 653, 2-(4-(2-(2,5-dimethylpyridin-4-yl)-3-isopropyl-1H-indol-5-yl)piperidin-1-yl)-N-methylacetamide]	4.4	13.9	4160
